The target in the assay is T1, human MRGPRX2 (Homo sapiens, UniProt Q96LB1).
T1 sequence (Q96LB1 1-330): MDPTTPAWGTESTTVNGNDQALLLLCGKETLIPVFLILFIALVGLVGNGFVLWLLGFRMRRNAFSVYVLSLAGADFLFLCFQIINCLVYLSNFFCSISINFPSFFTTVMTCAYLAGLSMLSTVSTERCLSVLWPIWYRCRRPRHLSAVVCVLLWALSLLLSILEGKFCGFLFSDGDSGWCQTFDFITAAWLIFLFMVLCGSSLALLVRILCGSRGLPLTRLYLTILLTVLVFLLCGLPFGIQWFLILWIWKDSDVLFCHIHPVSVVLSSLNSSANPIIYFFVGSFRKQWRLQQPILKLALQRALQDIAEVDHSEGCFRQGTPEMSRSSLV
In words: Ca2+ mobilization assay (FLIPR TETRA): inhibition of Cortistatin-14 mediated MRGPRX2 activation.

The text below walks through data of patent US11976057B2, “MrgX2 antagonists” (GlaxoSmithKline Intellectual Property Development Limited, priority 2020, dated 2024).

What is called IC50 is the midpoint of a concentration-inhibition curve. Higher therefore signals lower potency. On to `C[C@@H](C(=O)Nc1ccc(Oc2ccc(F)cc2)cn1)N1CCC(F)(F)[C@@H](c2c[nH]c(=O)c(CO)c2)C1` [Example 156], for which the IC50 is at most 10 nM.

On to `C[C@@H](C(=O)Nc1ccc(Oc2ccc(F)cn2)cn1)N1CCC(F)(F)[C@@H](c2c[nH]c(=O)c(CO)c2)C1` [Example 157, (S)-2-((S)-4,4-difluoro-3-(5-(hydroxymethyl)-6-oxo-1,6-dihydropyridin-3-yl)piperidin-1-yl)-N-(5-((5-fluoropyridin-2-yl)oxy)pyridin-2-yl)propanamide], for which the IC50 lay within 10 to 100 nM.

On to `C[C@@H](C(=O)Nc1ccc(Cl)cn1)N1CCC[C@@H](c2ccc(=O)[nH]c2)C1` [Example 158, (S)—N-(5-chloropyridin-2-yl)-2-((S)-3-(6-oxo-1,6-dihydropyridin-3-yl)piperidin-1-yl)propanamide], for which the IC50 was 100 to 3160 nM.

Consider `C[C@H]1C[C@@H](c2ccc(=O)[nH]n2)CN([C@@H](C)C(=O)Nc2ccc(F)cn2)C1` [Example 162, (S)—N-(5-fluoropyridin-2-yl)-2-((3S,5R)-3-methyl-5-(6-oxo-1,6-dihydropyridazin-3-yl)piperidin-1-yl)propanamide], for which the IC50 was 100 to 3160 nM.

Compound `C[C@@H](C(=O)Nc1ccc(OCC2CC2)cn1)N1CCC(F)(F)[C@@](C)(c2ccc(=O)[nH]c2)C1` [Example 163, (S)—N-(5-(cyclopropylmethoxy)pyridin-2-yl)-2-((S)-4,4-difluoro-3-methyl-3-(6-oxo-1,6-dihydropyridin-3-yl)piperidin-1-yl)propanamide] showed an IC50 of 100 to 3160 nM.

In turn, `CC(C(=O)Nc1ccc(OCC2CC2)cn1)N1CC(c2ccc(=O)[nH]c2)C(F)(F)C1` (stereo not drawn) [Example 164, N-(5-(cyclopropylmethoxy)pyridin-2-yl)-2-(3,3-difluoro-4-(6-oxo-1,6-dihydropyridin-3-yl)pyrrolidin-1-yl)propanamide] came in with an IC50 of 100 to 3160 nM.

Compound `C[C@@H](C(=O)Nc1ccc(Cl)cn1)N1CCC[C@@H](c2c[nH]c(=O)c(N)c2)C1` [Example 170] had an IC50 of 100 to 3160 nM.

Take `C[C@H]1C[C@@H](c2ccc(=O)[nH]c2)CN([C@@H](C)C(=O)Nc2ccc(Cl)cn2)C1` [Example 172]: the IC50 lay within 100 to 3160 nM.

`C[C@@H]1C[C@@H](c2ccc(=O)[nH]c2)CN([C@@H](C)C(=O)Nc2ccc(Cl)cn2)C1` [Example 173] gave an IC50 of 3160 to 31600 nM.

Take `C[C@@H](C(=O)Nc1ccc(Cl)cn1)N1CCC[C@@H](c2ccc(=O)n(C)c2)C1` [Example 176, (S)—N-(5-chloropyridin-2-yl)-2-((S)-3-(1-methyl-6-oxo-1,6-dihydropyridin-3-yl)piperidin-1-yl)propanamide]: the IC50 fell in the range of 3160 to 31600 nM.

As to `C[C@@H](C(=O)Nc1cnc(Oc2ccc(F)cc2F)cn1)N1CCC[C@@H](c2cc[n+]([O-])cc2)C1` [Example 181, 4-((S)-1-((S)-1-((5-(2,4-difluorophenoxy)pyrazin-2-yl)amino)-1-oxopropan-2-yl)piperidin-3-yl)pyridine 1-oxide], the IC50 was 10 to 100 nM.

`C[C@@H](C(=O)Nc1ccc(Oc2ccc(F)cc2F)cn1)N1CCC[C@@H](c2cc[n+]([O-])cc2)C1` [Example 182, 4-((S)-1-((S)-1-((5-(2,4-difluorophenoxy)pyridin-2-yl)amino)-1-oxopropan-2-yl)piperidin-3-yl)pyridine 1-oxide] yielded an IC50 of at most 10 nM.

As to `C[C@@H](C(=O)Nc1ccc(F)cn1)N1CCC(F)(F)C(c2cc(N)c(=O)n(CC(F)(F)F)c2)C1` (stereo partly drawn) [Example 187, (2S)-2-(3-(5-amino-6-oxo-1-(2,2,2-trifluoroethyl)-1,6-dihydropyridin-3-yl)-4,4-difluoropiperidin-1-yl)-N-(5-fluoropyridin-2-yl)propanamide], the IC50 lay within 3160 to 31600 nM.

As for `CCn1cc(C2CN([C@@H](C)C(=O)Nc3ccc(F)cn3)CCC2(F)F)ccc1=O` (stereo partly drawn) [Example 188, (2S)-2-(3-(1-ethyl-6-oxo-1,6-dihydropyridin-3-yl)-4,4-difluoropiperidin-1-yl)-N-(5-fluoropyridin-2-yl)propanamide], the IC50 fell in the range of 100 to 3160 nM.

`C[C@@H](C(=O)Nc1ccc(F)cn1)N1CCC(F)(F)C(c2ccc(=O)n(CCS(C)(=O)=O)c2)C1` (stereo partly drawn) [Example 190, (2S)-2-(4,4-difluoro-3-(1-(2-(methylsulfonyl)ethyl)-6-oxo-1,6-dihydropyridin-3-yl)piperidin-1-yl)-N-(5-fluoropyridin-2-yl)propanamide] showed an IC50 of 100 to 3160 nM.

Consider `C[C@@H](C(=O)Nc1ccc(OCC2CC2)nn1)N1CCC(F)(F)C(c2ccc(=O)n(CCS(C)(=O)=O)c2)C1` (stereo partly drawn) [Example 191, (2S)-N-(6-(cyclopropylmethoxy)pyridazin-3-yl)-2-(4,4-difluoro-3-(1-(2-(methylsulfonyl)ethyl)-6-oxo-1,6-dihydropyridin-3-yl)piperidin-1-yl)propanamide], for which the IC50 is 100 to 3160 nM.

Take `CC(C(=O)Nc1ccc(Oc2ccc(F)cc2)cn1)N1CCC(F)(F)C(c2ccc(=O)n(CCS(C)(=O)=O)c2)C1` (stereo not drawn) [Example 192, 2-(4,4-difluoro-3-(1-(2-(methylsulfonyl)ethyl)-6-oxo-1,6-dihydropyridin-3-yl)piperidin-1-yl)-N-(5-(4-fluorophenoxy)pyridin-2-yl)propanamide]: the IC50 fell in the range of 10 to 100 nM.

`C[C@@H](C(=O)Nc1ccc(F)cn1)N1CCC(F)(F)[C@@H](c2ccc(=O)n(CC(F)F)c2)C1` [Example 193]: the IC50 is at most 10 nM.

Regarding `CC(C)n1cc(C2CN([C@@H](C)C(=O)Nc3ccc(F)cn3)CCC2(F)F)ccc1=O` (stereo partly drawn) [Example 194, (2S)-2-(4,4-difluoro-3-(1-isopropyl-6-oxo-1,6-dihydropyridin-3-yl)piperidin-1-yl)-N-(5-fluoropyridin-2-yl)propanamide], the IC50 is 100 to 3160 nM.

`C[C@@H](C(=O)Nc1ccc(F)cn1)N1CCC(F)(F)[C@@H](c2ccc(=O)n(Cc3ccccc3)c2)C1` [Example 195] had an IC50 of at most 10 nM.

With `CC(C(=O)Nc1ccc(F)cn1)N1CCC(F)(F)C(c2ccc(=O)n(Cc3ccccn3)c2)C1` (stereo not drawn) [Example 196, 2-(4,4-difluoro-3-(6-oxo-1-(pyridin-2-ylmethyl)-1,6-dihydropyridin-3-yl)piperidin-1-yl)-N-(5-fluoropyridin-2-yl)propanamide], the IC50 is 10 to 100 nM.

`CC(C(=O)Nc1ccc(F)cn1)N1CCC(F)(F)C(c2ccc(=O)n(Cc3ccncc3)c2)C1` (stereo not drawn) [Example 197, 2-(4,4-difluoro-3-(6-oxo-1-(pyridin-4-ylmethyl)-1,6-dihydropyridin-3-yl)piperidin-1-yl)-N-(5-fluoropyridin-2-yl)propanamide] registered an IC50 of 10 to 100 nM.

As to `CC(C(=O)Nc1ccc(F)cn1)N1CCC(F)(F)C(c2ccc(=O)n(Cc3ncco3)c2)C1` (stereo not drawn) [Example 198, 2-(4,4-difluoro-3-(1-(oxazol-2-ylmethyl)-6-oxo-1,6-dihydropyridin-3-yl)piperidin-1-yl)-N-(5-fluoropyridin-2-yl)propanamide], the IC50 was 10 to 100 nM.

On to `C[C@@H](C(=O)Nc1ccc(F)cn1)N1CCC(F)(F)C(c2cc(CO)c(=O)n(CC(F)(F)F)c2)C1` (stereo partly drawn) [Example 199, (2S)-2-(4,4-difluoro-3-(5-(hydroxymethyl)-6-oxo-1-(2,2,2-trifluoroethyl)-1,6-dihydropyridin-3-yl)piperidin-1-yl)-N-(5-fluoropyridin-2-yl)propanamide], for which the IC50 was in the range of 100 to 3160 nM.

Regarding `Cc1cc(C2CN([C@@H](C)C(=O)Nc3ccc(F)cn3)CCC2(F)F)cn(CC(F)(F)F)c1=O` (stereo partly drawn) [Example 200, (2S)-2-(4,4-difluoro-3-(5-methyl-6-oxo-1-(2,2,2-trifluoroethyl)-1,6-dihydropyridin-3-yl)piperidin-1-yl)-N-(5-fluoropyridin-2-yl)propanamide], the concentration for half-maximal inhibition (IC50) was 3160 to 31600 nM.

The compound `CC(C(=O)Nc1ccc(Oc2ccccc2)cn1)N1CCC(F)(F)C(c2c[nH]c(=O)c(CN)c2)C1` (stereo not drawn) [Example 202, 2-(3-(5-(aminomethyl)-6-oxo-1,6-dihydropyridin-3-yl)-4,4-difluoropiperidin-1-yl)-N-(5-phenoxypyridin-2-yl)propanamide] showed an IC50 of at most 10 nM.

`C[C@@H](C(=O)Nc1ccc(OCC2CC2)nn1)N1CCC(F)(F)[C@@H](c2c[nH]c(=O)c(CN)c2)C1` [Example 203, (S)-2-((S)-3-(5-(aminomethyl)-6-oxo-1,6-dihydropyridin-3-yl)-4,4-difluoropiperidin-1-yl)-N-(6-(cyclopropylmethoxy)pyridazin-3-yl)propanamide] returned an IC50 of 10 to 100 nM.

As for `C[C@@H](C(=O)Nc1ccc(Oc2ccc(F)cc2)cn1)N1CCC(F)(F)[C@@H](c2c[nH]c(=O)c(CN)c2)C1` [Example 204, (S)-2-((S)-3-(5-(aminomethyl)-6-oxo-1,6-dihydropyridin-3-yl)-4,4-difluoropiperidin-1-yl)-N-(5-(4-fluorophenoxy)pyridin-2-yl)propanamide], the IC50 was at most 10 nM.

`C[C@@H](C(=O)Nc1ccc(Oc2ccc(F)cc2F)cn1)N1CCC(F)(F)[C@@H](c2c[nH]c(=O)c(CN)c2)C1` [Example 205, (S)-2-((S)-3-(5-(aminomethyl)-6-oxo-1,6-dihydropyridin-3-yl)-4,4-difluoropiperidin-1-yl)-N-(5-(2,4-difluorophenoxy)pyridin-2-yl)propanamide] showed an IC50 of at most 10 nM.

As to `C[C@@H](C(=O)Nc1cnc(Oc2ccc(F)cc2)cn1)N1CCC(F)(F)[C@@H](c2c[nH]c(=O)c(CN)c2)C1` [Example 206, (S)-2-((S)-3-(5-(aminomethyl)-6-oxo-1,6-dihydropyridin-3-yl)-4,4-difluoropiperidin-1-yl)-N-(5-(4-fluorophenoxy)pyrazin-2-yl)propanamide], the IC50 was 10 to 100 nM.
